Tests used:
[1] = Chlorhexidine gluconate remaining after gamma irradiation, measured by HPLC; format: physicochemical; conditions: for Chlorhexidine gluconate after irradiation, % / Preservation, %: initial CHD 0.075 wt %
Description: An aqueous solution of silver nitrate salt (as the source of silver) was prepared so that the final concentration of silver in the solution was 60 ppm. A 20 wt % aqueous solution of chlorhexidine gluconate (CHD) was added to make the resulting concentration of 0.05 wt %. Finally, isopropanol was added to achieve the concentration of 4 wt % in the resulting solution. The sample was a transparent colorless liquid. Thermo Scientific Evolution 220 Spectrophotometer was used to monitor the absorbance spectra of the sample, which is shown in FIG. 1 as the dashed line. The 30 ml sample solution was then subjected to irradiation by gamma rays at 7 kGy. The resulting solution was a transparent brownish liquid showing a clear peak of absorption at the wavelength 412.7 nm (solid line in FIG. 1), which corresponds to the presence of silver nanoparticles. The sample of the irradiated solution was presented for imaging to Transmission Electron Microscope (JEOL JEM 2100F) and an example of the image is shown in FIG. 2, which confirms formation of silver nanoparticles in the irradiated solution. The nanoparticles have quasi-spherical form and a visible conjugated layer around their surface. […]
Two identical samples were prepared as described in Example 1, each of them being colorless transparent aqueous solutions containing 60 ppm of silver in the form of silver nitrate, 0.5 wt % of polyvinyl alcohol, 4 wt % of isopropanol and 0.05 wt % of chlorhexidine gluconate. The samples were subjected to different doses of gamma irradiation—the first sample to 7 kGy and the second to 3 kGy. After irradiation the color of the samples changed to the transparent brown.
To evaluate any influence of the amount and the nature of the stabilizing agent, three different samples were prepared as described in Example 1. Each of them contained 30 ppm of silver in the form of silver nitrate and 0.05 wt % of chlorhexidine gluconate in an aqueous solution. The first sample additionally contained 0.5 wt % of polyvinyl alcohol (PVA) and 10 wt % of isopropanol, the second—2 wt % of polyvinyl alcohol and 10 wt % of isopropanol and the third sample additionally contained 1 wt % of polyvinylpyrrolidone (PVP) and 4 wt % of isopropanol. All three samples represented clear colorless liquids before irradiation. The irradiated at 10 kGy samples changed their color to the transparent brown color of different intensities. The concentration of chlorhexidine gluconate was measured using HPLC and determined as 0.015 wt % in the first and the second sample and 0.016 wt % in the third sample. The UV-vis spectra of all three samples show formation of silver nanoparticles, with the only difference that in the sample which contained PVP the nanoparticles are larger than in those which contained PVA (FIG. 5; the “shoulder” of the small dashed line indicates presence of nanoparticles larger than 100 nm).
To evaluate any difference caused by the initial amount of chlorhexidine gluconate, two samples were prepared as in Example 1, but one of them contained 0.05 wt % of chlorhexidine gluconate and another sample contained 0.075 wt % of chlorhexidine gluconate before irradiation. Both samples were irradiated at 7 kGy, by the action of which the nanoparticles of silver were formed in both samples.
To evaluate the influence of the amount of silver present in the form of a silver salt as a precursor for nanoparticles formation, three different samples were prepared as described in Example 1. Each of them contained 0.075 wt % of chlorhexidine gluconate, 0.5 wt % of polyvinyl alcohol and 4 wt % of isopropanol in an aqueous solution. Silver nitrate was added to each of the samples so that the concentration of silver in the samples was 15 ppm, 30 ppm and 60 ppm. All the samples were transparent colorless solutions. They were subjected to gamma irradiation at 7 kGy and the concentration of chlorhexidine gluconate was measured consequently using HPLC. […]

[2] = as above; format: physicochemical
[3] = Example 1: Ag 60 ppm (silver nitrate), initial CHD 0.05 wt %, isopropanol 4 wt %, gamma 7 kGy
[4] = Example 2: Ag 60 ppm, PVA 0.5 wt %, isopropanol 4 wt %, initial CHD 0.05 wt %, gamma 7 kGy
[5] = Example 4, first sample: initial CHD 0.05 wt %, silver nitrate, gamma 7 kGy
[6] = Example 4, second sample: initial CHD 0.075 wt %, silver nitrate, gamma 7 kGy
[7] = Example 5: Ag 15 ppm, PVA 0.5 wt %, isopropanol 4 wt %, gamma 7 kGy
[8] = Example 5: Ag 30 ppm, PVA 0.5 wt %, isopropanol 4 wt %, gamma 7 kGy
[9] = Example 5: Ag 60 ppm, PVA 0.5 wt %, isopropanol 4 wt %, gamma 7 kGy
[10] = Example 9: Au 30 ppm (chloroauric acid), isopropanol 4 wt %, initial CHD 0.05 wt %, gamma 3 kGy

concentration of chlorhexidine gluconate in the irradiated solution [1, 3]: 0.0295 wt % | rate of preservation compared to the initial level before irradiation [1, 3]: 59% | rate of preservation ([1]; Example 2: Ag 60 ppm, PVA 0.5 wt %, isopropanol 4 wt %, initial CHD 0.05 wt %, gamma 3 kGy): 79% | chlorhexidine gluconate after irradiation [1, 4]: 0.0294 wt % | rate of preservation [1, 4]: 58.8% | concentration of chlorhexidine gluconate after irradiation ([1]; Example 3, first sample: Ag 30 ppm, initial CHD 0.05 wt %, PVA 0.5 wt %, isopropanol 10 wt %, gamma 10 kGy): 0.015 wt % | concentration of chlorhexidine gluconate after irradiation ([1]; Example 3, second sample: Ag 30 ppm, initial CHD 0.05 wt %, PVA 2 wt %, isopropanol 10 wt %, gamma 10 kGy): 0.015 wt % | concentration of chlorhexidine gluconate after irradiation ([1]; Example 3, third sample: Ag 30 ppm, initial CHD 0.05 wt %, PVP 1 wt %, isopropanol 4 wt %, gamma 10 kGy): 0.016 wt % | concentration of chlorhexidine gluconate after irradiation [1, 5]: 0.0294 wt % | preservation rate [1, 5]: 58.8% | concentration of chlorhexidine gluconate after irradiation [1, 6]: 0.052 wt % | preservation rate [1, 6]: 69.3% | Chlorhexidine gluconate after irradiation, % [1, 7]: 0.043% | Preservation, % [1, 7]: 57.33% | Chlorhexidine gluconate after irradiation, % [1, 8]: 0.049% | Preservation, % [1, 8]: 65.33% | Chlorhexidine gluconate after irradiation, % [1, 9]: 0.052% | Preservation, % [1, 9]: 69.33% | preservation [1, 10]: 51.6% | presence of chlorhexidine in the irradiated sample ([2]; Example 8 (comparative): gold nanoparticles made chemically with ascorbic acid, CHD 0.05 wt % added afterwards, gamma 7 kGy): not detected | chlorhexidine gluconate detected after irradiation [2, 10]: 0.0258 wt %
SMILES: [H]/N=C(\N/C(=N/[H])NCCCCCCNC(=N)NC(=N)Nc1ccc(Cl)cc1)Nc1ccc(Cl)cc1 [chlorhexidine gluconate]

— patent publication US20220193255A1, “CHLORHEXIDINE SYSTEMS AND METHODS FOR OBTAINING SAME” (priority 2019, published 2022)
